This passage reports IC50 results from patent publication US20260355196A1, “INHIBITORS AND DEGRADERS OF PIP4K PROTEIN” (Larkspur Biosciences, Inc., priority 2023, published 2026).

The target of the experiment is T1, PIP4K2C (Homo sapiens, UniProt Q8TBX8).
T1 sequence (Q8TBX8 1-421): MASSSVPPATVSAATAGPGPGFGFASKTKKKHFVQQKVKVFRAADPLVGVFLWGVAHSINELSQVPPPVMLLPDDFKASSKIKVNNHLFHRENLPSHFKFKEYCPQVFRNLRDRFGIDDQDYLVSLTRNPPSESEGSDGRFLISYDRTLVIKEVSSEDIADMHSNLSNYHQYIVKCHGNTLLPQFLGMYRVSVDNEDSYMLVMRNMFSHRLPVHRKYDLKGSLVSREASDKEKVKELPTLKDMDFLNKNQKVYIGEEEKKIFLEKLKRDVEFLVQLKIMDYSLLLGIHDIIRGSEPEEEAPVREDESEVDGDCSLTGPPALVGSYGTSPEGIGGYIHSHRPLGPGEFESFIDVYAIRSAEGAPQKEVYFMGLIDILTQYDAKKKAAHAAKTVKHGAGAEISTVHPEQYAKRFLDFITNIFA
Kind of experiment: Enzyme Binding Assay (KINOMEscan): active site-directed competition binding to an immobilized ligand. The note with it: 11-point dose response, duplicate, top concentration 5 micromolar; read-out: Pip4k2c Kd: IC50. Details: purchased Eurofins DiscoverX, San Diego, CA 87-0007-1094. In outline: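 Active site-directed competition binding against an immobilized ligand. 11-point dose-response in duplicate, top concentration 5 micromolar; IC50 from a Hill equation fitted by the Levenberg-Marquardt algorithm.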
For orientation: IC50 means the point on the concentration scale where inhibition reaches its midpoint. Regarding `CC(=O)N[C@H]1CC[C@H](Nc2ncc(F)c(-c3cccc(N4CCOC4=O)c3)n2)CC1` [Compound 233, trans-N-(4-((5-fluoro-4-(3-(2-oxooxazolidin-3-yl)phenyl)pyrimidin-2-yl)amino)cyclohexyl)acetamide], the 50% inhibitory concentration (IC50) was less than 500 nM.

`NC(=O)C1CCCC(Nc2ncc(Cl)c(-c3cccc(-c4ccccc4)c3)n2)C1` (stereo not drawn) [Compound 22, 3-((4-([1,1′-biphenyl]-3-yl)-5-chloropyrimidin-2-yl)amino)cyclohexane-1-carboxamide]: the 50% inhibitory concentration (IC50) is less than 500 nM. Then `CC(=O)N1CCC[C@H](Nc2ncc(Cl)c(-c3cccc(C4CCCCC4)c3)n2)C1` [Compound 39, (S)-1-(3-((5-chloro-4-(3-cyclohexylphenyl)pyrimidin-2-yl)amino)piperidin-1-yl)ethan-1-one], with less than 500 nM; and `NC(=O)[C@H]1CC[C@H](Nc2ncc(F)c(-c3cccc(-n4ccccc4=O)n3)n2)CC1` [Compound 617, trans-4-((5-fluoro-4-(2-oxo-2H-[1,2′-bipyridin]-6′-yl)pyrimidin-2-yl)amino)cyclohexane-1-carboxamide], with less than 500 nM; and `NC(=O)[C@H]1CC[C@H](Nc2ncc(F)c(-c3ccnc(N4CCOCC4=O)c3)n2)CC1` [Compound 273, trans-4-((5-fluoro-4-(2-(3-oxomorpholino)pyridin-4-yl)pyrimidin-2-yl)amino)cyclohexane-1-carboxamide], with less than 500 nM. Next, `NC(=O)[C@H]1CC[C@H](Nc2ncc(F)c(-c3ccnc(N4CCOC4=O)c3)n2)CC1` [Compound 263, trans-(1r,4r)-4-((5-fluoro-4-(2-(2-oxooxazolidin-3-yl)pyridin-4-yl)pyrimidin-2-yl)amino)cyclohexane-1-carboxamide]: less than 500 nM; `CC(=O)N1CCC(Nc2ncc(F)c(-c3cccc(N4CCC[C@@H](O)C4)c3)n2)CC1` [Compound 209, (R)-1-(4-((5-fluoro-4-(3-(3-hydroxypiperidin-1-yl)phenyl)pyrimidin-2-yl)amino)piperidin-1-yl)ethan-1-one]: less than 500 nM; `CC(=O)N1CCC(Nc2ncc(F)c(-c3cccc(C(=O)N4CCC(O)(CO)CC4)c3)n2)CC1` [Compound 217, 1-[4-[[5-fluoro-4-[3-[4-hydroxy-4-(hydroxymethyl)piperidine-1-carbonyl]phenyl]pyrimidin-2-yl]amino]-1-piperidyl]ethanone]: less than 500 nM. With `NC(=O)[C@@H]1CCC[C@H](Nc2ncc(F)c(-c3cccc(-c4ccccc4)c3)n2)C1` [Compound 612, (1R,3S)-3-((4-([1,1′-biphenyl]-3-yl)-5-fluoropyrimidin-2-yl)amino) cyclohexane-1-carboxamide], the IC50 is less than 500 nM. `CNC(=O)[C@H]1CC[C@H](Nc2ncc(Cl)c(-c3cnn(C4CCCCC4)c3)n2)CC1` [Compound 118, trans-(1r,4r)-4-((5-chloro-4-(1-cyclohexyl-1H-pyrazol-4-yl)pyrimidin-2-yl)amino)-N-methylcyclohexane-1-carboxamide]: the IC50 was less than 500 nM. Regarding `CC(=O)N[C@H]1CC[C@H](Nc2ncc(F)c(-c3ccnc(C4(O)CCC4)c3)n2)CC1` [Compound 231, trans-N-(4-((5-fluoro-4-(2-(1-hydroxycyclobutyl)pyridin-4-yl)pyrimidin-2-yl)amino)cyclohexyl)acetamide], the IC50 is less than 500 nM. Then `CC(=O)N[C@H]1CC[C@H](Nc2ncc(F)c(-c3cccc(-c4ccc[nH]c4=O)c3)n2)CC1` [Compound 255, N-(trans-4-((5-fluoro-4-(3-(2-oxo-1,2-dihydropyridin-3-yl)phenyl)pyrimidin-2-yl)amino)cyclohexyl)acetamide], with less than 500 nM; and `CNC(=O)[C@H]1C[C@@H](Nc2ncc(Cl)c(-c3cc(C4CC4)[nH]n3)n2)C1` [Compound 161, cis-3-((5-chloro-4-(5-cyclopropyl-1H-pyrazol-3-yl)pyrimidin-2-yl)amino)-N-methylcyclobutane-1-carboxamide], with less than 500 nM; and `CC(=O)N1CCCC(c2cccc(-c3nc(N[C@@H]4CCC[C@H](C(N)=O)C4)ncc3F)c2)C1` (relative stereo) [Compound 178, cis-3-((4-(3-(1-acetylpiperidin-3-yl)phenyl)-5-fluoropyrimidin-2-yl)amino)cyclohexane-1-carboxamide], with less than 500 nM. Next, `CC(=O)N1CCC(Nc2ncc(F)c(-c3cccc(-c4cc[nH]c(=O)c4)c3)n2)CC1` [Compound 187, 4-(3-(2-((1-acetylpiperidin-4-yl)amino)-5-fluoropyrimidin-4-yl)phenyl)pyridin-2(1H)-one]: less than 500 nM. Take `CNC(=O)[C@H]1C[C@@H](Nc2ncc(Cl)c(-c3cnn(-c4ccc(F)cc4)c3)n2)C1` [Compound 122, cis-(1s,3s)-3-((5-chloro-4-(1-(4-fluorophenyl)-1H-pyrazol-4-yl)pyrimidin-2-yl)amino)-N-methylcyclobutane-1-carboxamide]: the IC50 is less than 500 nM. With `NC(=O)[C@@H]1CCC[C@H](Nc2ncc(F)c(-c3cccc(-c4ccc[nH]c4=O)c3)n2)C1` (relative stereo) [Compound 150, cis-3-((5-fluoro-4-(3-(2-oxo-1,2-dihydropyridin-3-yl)phenyl)pyrimidin-2-yl)amino)cyclohexane-1-carboxamide], the IC50 was less than 500 nM.

In the case of `CC(=O)N[C@H]1CC[C@H](Nc2ncc(Cl)c(C3CCN(C(=O)c4ccc(F)cc4)C3)n2)CC1` (stereo partly drawn) [Compound 126, trans-N-(4-((5-chloro-4-(1-(4-fluorobenzoyl)pyrrolidin-3-yl)pyrimidin-2-yl)amino)cyclohexyl)acetamide], the IC50 lay in the range of 1000 to 5000 nM. `CC(=O)N1CCC(Nc2ncc(F)c(N3CCCC(n4ccccc4=O)C3)n2)CC1` (stereo not drawn) [Compound 189, 1-(1-(2-((1-acetylpiperidin-4-yl)amino)-5-fluoropyrimidin-4-yl)piperidin-3-yl)pyridin-2(1H)-one]: the IC50 was in the range of 1000 to 5000 nM.

With `NC(=O)[C@H]1CC[C@H](Nc2ncc(F)c(-c3ccnc(-n4ccccc4=O)c3)n2)CC1` [Compound 623, trans-4-((5-fluoro-4-(2-oxo-2H-[1,2′-bipyridin]-4′-yl)pyrimidin-2-yl)amino)cyclohexane-1-carboxamide], the half-maximal inhibitory concentration (IC50) is less than 500 nM.

Consider `CC(=O)N[C@H]1CC[C@H](Nc2ncc(Cl)c(-c3ccc(=O)n(C4CC4)c3)n2)CC1` [Compound 96, trans-N-((1r,4r)-4-((5-chloro-4-(1-cyclopropyl-6-oxo-1,6-dihydropyridin-3-yl)pyrimidin-2-yl)amino)cyclohexyl)acetamide], for which the half-inhibitory concentration (IC50) fell in the range of 500 to 1000 nM.

`CNC(=O)[C@H]1CC[C@@H](Nc2ncc(Cl)c(-c3cccc(-n4ccccc4=O)c3)n2)CC1` [Compound 104, cis-(1s,4s)-4-((5-chloro-4-(3-(2-oxopyridin-1 (2H)-yl)phenyl)pyrimidin-2-yl)amino)-N-methylcyclohexane-1-carboxamide]: the concentration for half-maximal inhibition (IC50) was less than 500 nM.

In the case of `NC(=O)[C@H]1CC[C@H](Nc2ncc(F)c(-c3ccnc(N4CCCCC4=O)c3)n2)CC1` [Compound 258, trans-4-((5-fluoro-4-(2-(2-oxopiperidin-1-yl)pyridin-4-yl)pyrimidin-2-yl)amino)cyclohexane-1-carboxamide], the half-inhibitory concentration (IC50) was less than 500 nM.

For the molecule `CC(=O)N[C@H]1CC[C@H](Nc2ncc(F)c(-c3cccc(N4CCCOC4=O)c3)n2)CC1` [Compound 225, trans-N-(4-((5-fluoro-4-(3-(2-oxo-1,3-oxazinan-3-yl)phenyl)pyrimidin-2-yl)amino)cyclohexyl)acetamide], the IC50 was less than 500 nM.

As for `CC(=O)N1CCC[C@H](Nc2ncc(Cl)c(N3CCC(c4ccccc4)C3)n2)C1` (stereo partly drawn) [Compound 20, 1-((3S)-3-((5-chloro-4-(3-phenylpyrrolidin-1-yl)pyrimidin-2-yl)amino)piperidin-1-yl)ethan-1-one], the IC50 is 1000 to 5000 nM. Then `CC(=O)N1CCC[C@H](Nc2ncc(Cl)c(-c3cccc(N4CCCCC4)c3)n2)C1` [Compound 37, (S)-1-(3-((5-chloro-4-(3-(piperidin-1-yl)phenyl)pyrimidin-2-yl)amino)piperidin-1-yl)ethan-1-one], with less than 500 nM; and `CC(=O)N[C@H]1CC[C@@H](Nc2ncc(Cl)c(-c3cnn(C4CC4)c3)n2)CC1` [Compound 99, cis-N-((1s,4s)-4-((5-chloro-4-(1-cyclopropyl-1H-pyrazol-4-yl)pyrimidin-2-yl)amino)cyclohexyl)acetamide], with 500 to 1000 nM; and `CC(=O)N[C@H]1CC[C@H](Nc2ncc(F)c(-c3cccc(-c4ccccc4)c3)n2)CC1` [Compound 609, trans-N-(4-((4-([1,1′-biphenyl]-3-yl)-5-fluoropyrimidin-2-yl)amino)cyclohexyl)acetamide], with less than 500 nM. Next, `CC(=O)N1CCC(Nc2ncc(Cl)c(-c3ccnc(-c4ccc(F)cc4)c3)n2)CC1` [Compound 105, 1-(4-((5-chloro-4-(2-(4-fluorophenyl)pyridin-4-yl)pyrimidin-2-yl)amino)piperidin-1-yl)ethan-1-one]: less than 500 nM; `CC(=O)N[C@H]1CC[C@H](Nc2ncc(F)c(-c3cccc(N4CCOCC4)c3)n2)CC1` [Compound 608, trans-N-(4-((5-fluoro-4-(3-morpholinophenyl)pyrimidin-2-yl)amino)cyclohexyl)acetamide]: less than 500 nM.
